Key:
TRP-2-specific CTLs = experiment: Activation of cytotoxic T cells in isolated Langerhans cells co-cultured with lymphocytes; assay type: cell-based, C57BL/6(B6) mouse
Method: A given area of an auricle epidermal sheet was removed from the corneal layer of one auricle of each C57BL/6(B6) mouse, and trypsinized to yield an epidermal cell suspension. The epidermal cell suspension obtained was subjected to panning using an antibody specific for I-A^b antigen to isolate epidermal Langerhans cells. After each test substance (TRP-2 (concentration; 10 μg/mL) and Compound A-(1) (1 μM)) was added to the Langerhans cells isolated (cell density; 10^5 cells per mL), the cells were cultured with a medium (cRPMI1640 medium; Sigma-Aldrich Japan). Half a day later, the cells were co-cultured with splenocytic lymphocytes isolated from […] for 7 days. Subsequently, by a flowcytometric analysis (FACScaliber; Becton, Dickinson and Company.) using a tetramer (Medical & Biological Laboratories Co., Ltd.), the frequency of TRP-2-specific CTLs was determined relative to the total number of mononucleocytes in the medium as 100. Three experimental groups were established: (1) a group with no treatment, (2) a group with the addition of TRP-2, and (3) a group with the addition of both TRP-2 and Compound A-(1).

HSVgpB-specific CTLs = experiment: Activation of cytotoxic T cells in cervical lymph nodes after tape stripping (HSVgpB pentamer flow cytometry); assay type: in vivo, C57BL/6(B6) mice; conditions: Example 1(3), TS followed by application of HSVgpB and the EP4 agonist
Method: The corneal layers of the auricles of C57BL/6(B6) mice were destroyed by repeating a stripping procedure using an adhesive tape in 10 cycles, and an antigen peptide or EP4 agonist was applied as a test substance. The antigen peptide used was a melanoma-specific antigen peptide (Accord K.K. Peptide Business Department; hereinafter abbreviated TRP-2) in solution in 70% ethanol; 10 μg was applied to one side of each auricle. The EP4 agonist used was 11α,15α,-dihydroxy-9-oxo-16-(3-methoxymethylphenyl)-17,18,19,20-tetranol-3,7-dithiaprost-13E-enoic acid (hereinafter abbreviated Compound A-(1)) in solution in a mixed solvent of acetone:olive oil=10:1; 20 μL of 100 μM solution was applied to one side of each auricle. One week after application of the test substance, the cervical lymph nodes were removed. The frequency of TRP-2-specific CTLs was determined relative to the total number of mononucleocytes in the cervical lymph nodes as 100 by a flowcytometric analysis (FACScaliber; Becton, Dickinson and Company.) with a tetramer (Medical & Biological Laboratories Co., Ltd.). Four experimental groups were established: (1) a group undergoing tape stripping (hereinafter abbreviated TS) alone, (2) a group undergoing TS followed by application of TRP-2, (3) a group undergoing TS followed by application of Compound A-(1), and (4) a group undergoing TS followed by application of TRP-2 and Compound A-(1).
The same procedures as Example 1(1) were followed except that the antigen peptide used was the herpes simplex virus-specific antigen HSV glycoprotein B (hereinafter abbreviated HSVgpB), and that a flowcytometric analysis with a pentamer (ProImmune Company) was performed, and the action of each compound to activate cytotoxic T cells was evaluated. Five experimental groups were established: (1) a group undergoing TS alone, (2) a group undergoing TS followed by application of HSVgpB, (3) a group undergoing TS followed by application of HSVgpB and Compound A-(1), (4) a group undergoing TS followed by application of HSVgpB and Compound L-(1), and (5) a group undergoing TS followed by application of HSVgpB and Compound M-(1).
Note that the herpes simplex virus-specific antigen peptide HSVgpB was synthesized on the basis of the partial sequence shown by SEQ ID NO. 2 (Virology, Vol. 195, pp. 62-70, (1993)) (ProImmune Company).

B16 melanoma cells = experiment: Melanoma growth suppressing action; assay type: in vivo, B6 mouse; conditions: for tumor diameter compared with the experimental group (1): FIG. 1
Method: The corneal layer was removed from the right auricle of each B6 mouse by TS in the same manner as Example 1, and test substances (TRP-2 and Compound A-(1)) were applied there; 2 weeks later, the left auricle was treated in the same manner. The test substances applied to both ears were used in the same combination; TRP-2 was applied at 10 μg for one side of each auricle, and Compound A-(1) was applied at 20 μl, of 100 μM solution for one side of each auricle. Four days after the above-described treatment, each mouse received 2×10^5 B16 melanoma cells (RIKEN's Cell Bank) by subcutaneous transplantation, and examined for tumor growth. Experimental groups were established as in Example 1(1) (5 animals in each group).
Tumor diameter (mm), as an index of tumor growth, was measured in each group at various days after inoculation of B16 melanoma cells; the results are shown in FIG. 1.

[1] = TS followed by application of Compound A-(1) alone, experimental group (3)
[2] = TS followed by application of TRP-2 and Compound A-(1), experimental group (4)

COCc1cccc(C[C@H](O)/C=C/[C@H]2[C@H](O)CC(=O)[C@@H]2SCCCSCC(=O)O)c1 [Compound A-(1), 11α,15α,-dihydroxy-9-oxo-16-(3-methoxymethylphenyl)-17,18,19,20-tetranol-3,7-dithiaprost-13E-enoic acid]
Ratio of TRP-2-specific CTLs (TRP-2-specific CTLs; addition of both TRP-2 (10 μg/mL) and Compound A-(1) (1 μM), 7 days co-culture, relative to total mononucleocytes in the medium as 100): 6.6
action of inducing TRP-2-specific CTLs compared with TRP-2 (TRP-2-specific CTLs; isolated Langerhans cells): equivalent
Ratio of HSVgpB-specific CTLs (HSVgpB-specific CTLs): 0.41
tumor growth rates (B16 melanoma cells; [1]): decreased
tumor diameter compared with the experimental group (1) (B16 melanoma cells; [1]): smaller
tumor growth rates (B16 melanoma cells; [2]): decreased
take of B16 melanoma cells (B16 melanoma cells; TS followed by application of TRP-2 and Compound A-(1), experimental group (4), 5 animals): did not take in any animals
tumor diameter compared with the experimental group (1) (B16 melanoma cells; [2]): smaller

From patent publication US8507545B2, “Cytotoxic T cell activator comprising EP4 agonist” (National University Corporation, Hamamatsu University …, priority 2007, dated 2013)
